This note sets out measurements from patent US9274101B2 (BIOLOG, Inc., priority 2001, dated 2016).

Structures are written as SMILES.

Test [1] concerns E. coli MG1655. Type of test: cell-based, Escherichia coli.
Test [2] relates to Undifferentiated HL-60 cells. The test is described as follows: Energy use by undifferentiated HL-60 cells. Type of test: cell-based, human. The conditions noted are these: Homo sapiens, HL-60, 24 h, read-out: Energy Use by Undifferentiated HL-60 Cells.
For test [3], the system named is E. coli MG1655. Type of test: cell-based, Escherichia coli. The source holds these as a separate data set.
Another test concerns HepG2 cells. The test is described as follows: HepG2 cells on flat bottom plastic wells, energy sources at a range of concentrations. Type of test: cell-based, human. The conditions noted are these: Homo sapiens, HepG2, 72 h, read-out: HepG2 Cells Responses After 72 hours in Culture and a 4 hour Color Development Period. Here is the method: In this Example, methods for testing adherent cells for their ability to use multiple carbon sources are described. The human hepatocellular carcinoma cell line known as HepG2 (Knowles et al., Science, 209:497-499 [1980]) was chosen for this experiment. However, this application is not intended to be limited to the use of HepG2 cells, hepatocytes, carcinoma cells or even human cells.
HepG2 cells were grown in Falcon tissue culture flasks with vented tops. The culture medium used was Minimal Essential medium (MEM, Invitrogen 11095) with 1 g/L glucose, 2 mM L-glutamine, 2.2 g/L sodium bicarbonate, 10 mg/L phenol red, and supplemented with 0.1 mM Nonessential Amino Acids, 1 mM sodium pyruvate, 50 U/mL penicillin, 50 μg/mL streptomycin, and 10% (v/v) heat inactivated fetal bovine serum (HI FBS, Invitrogen 16140). The cells were seeded at 2×10^4/cm^2 and used 3 days after initiation of culture. During all incubations, the cells were kept in an atmosphere of 5% CO2, 90-100% humidity, and 37° C. Cells were harvested by trypsinization for 3 minutes in 0.25% trypsin-1 mM EDTA and resuspended in an equal volume of culture medium. A viable cell count was obtained by trypan blue exclusion and an appropriate volume of the cell suspension (to have 33% more viable cells than was sufficient for the experiment) was placed in a polypropylene centrifuge tube. Cells were pelleted by centrifugation at 350×g for 10 minutes at room temperature, resuspended in Dulbecco's Phosphate Buffered Saline (D-PBS, Invitrogen 14040) and centrifuged a second time. Cells were then resuspended to two-thirds the final volume needed in Dulbecco' ? s Modified Eagle's Medium (DME, Sigma D5030) containing 10% HI FBS and penicillin-streptomycin but without glucose, L-glutamine, sodium pyruvate, and phenol red. An aliquot was counted by trypan blue exclusion and the cell density was adjusted to 1.28×10^5/mL. Cells were plated in 100 μL/well in wells of standard, 96-well plates (4×10^4 cells/cm^2) and allowed to adhere overnight prior to addition of test chemicals.
For assay, the culture medium was aspirated, the wells were washed once with D-PBS and 170 μL of DME were added to each well, followed by 30 μL of the appropriate dilution of each test energy source. Stocks of 133 mM of each test chemical were prepared in tissue culture grade water, sterile filtered, and dilutions were prepared in a master plate so that, upon dilution into a regular 96-well MICROPLATE a total well volume of 200 μL, the final concentrations would be 0.033 to 20 mM. Negative control wells received 30 μL of tissue culture grade water. For each plate containing energy sources and cells, a second, control plate containing only energy sources was prepared. Plates were incubated at 5% CO2, 90-100% humidity, and 37° C. for 48 to 72 hours prior to addition of the MTS/PMS colorometric reagent (10 μL/well). The color formed in each well 4-24 hours after addition of the calorimetric reagent, was measured with a plate reader at 490 nm with a reference wavelength of 650 nm. OD values from the control plate were subtracted from the OD values obtained with cells prior to normalizing the data to % negative control (cells without added energy source).

Test [4] has as its system DMSO-differentiated HL-60 cells. The test is described as follows: Energy use by DMSO-differentiated HL-60 cells. Type of test: cell-based, human. The conditions noted are these: Homo sapiens, HL-60, 24 h, read-out: Energy Use by DMSO-Differentiated HL-60 Cells. The protocol: In this Example, methods for testing in vitro-differentiated cells for their ability to use multiple energy sources are described. Prior to differentiation, HL-60 cells were cultured as described in Example 27. DMSO-induced differentiation (Odani et al., Res. Commun. Mol. Pathol. Pharmacol. 108:381-391 [2000]; and Yamaguchi et al., Biol. Pharm. Bull. 20:943-947 [1997]) was accomplished by incubation of the cells in the presence of 1.25% DMSO for 3 days.
After washing, HL-60 cells were resuspended in DME-R. An aliquot of the cell suspension was counted by trypan blue exclusion and the cell density was adjusted to 6.67×10^5/mL. Fifty μL of DME-R were added to each well of the appropriate number of half area, 96-well plates, followed by 25 μL of the appropriate dilution of each test energy source. Stocks of 133 mM of each test chemical were prepared in tissue culture grade water, sterile filtered, and dilutions were prepared in a master plate so that, upon dilution into a half-area 96-well microtiter plate to a total well volume of 150 μL, the final concentrations would be 0.033 to 20 mM. Negative control wells received 25 μL of tissue culture grade water. The cells were plated at a volume of 75 μL/well, giving a final cell density of 5×10^4/well. For each plate containing energy sources and cells, a second, control plate containing only energy sources was prepared with the same total volume of liquid (148 μL/well). Plates were incubated at 5% CO2, 90-100% humidity, and 37° C. for 24 hours prior to addition of the MTS/MPMS calorimetric reagent (7.5 μL/well). The color formed in each well 24 hours after addition of the colorimetric reagent, was measured with a plate reader at 490 nm with a reference wavelength of 650 nm. OD values from the control plate were subtracted from the OD values obtained with cells prior to normalizing the data to % negative control (cells without added energy source).

In a further test the test system is HL-60 cells. Description: HL-60 responses to selected compounds at a range of concentrations. In kind it is cell-based, human. The protocol: In this Example, methods for testing unattached cells for their ability to use various concentrations of selected carbon sources are described. The carbon sources used in this Example were identified by the methods disclosed in Example 27. Similarly, HL-60 cells were cultured as described in Example 27.
After washing, HL-60 cells were resuspended in DME-R. An aliquot of the cell suspension was counted by trypan blue exclusion and the cell density was adjusted to 6.67×10^5/mL. Fifty μL of DME-R were added to each well of the appropriate number of half area, 96-well plates, followed by 23 μL of the appropriate dilution of each test energy source. Stocks of 133 mM of each test chemical were prepared in tissue culture grade water, sterile filtered, and dilutions were prepared in a master plate so that, upon dilution in a total volume of 150 μL, the final concentrations would be 0.033 to 20 mM. Negative control wells received 23 μL of tissue culture grade water. The cells were plated at a volume of 75 μL/well, giving a final cell density of 5×10^4/well. For each plate containing energy sources and cells, a second, control plate containing only energy sources was prepared. Plates were incubated at 5% CO2, 90-100% humidity, and 37° C. for 24 hours prior to addition of the MTS/MPMS colorometric reagent (7.5 μL/well). The color formed in each well after an additional 24 hour incubation period, was measured on a plate reader at 490 nm with a reference wavelength of 650 nm. OD values from the control plate were subtracted from the OD values obtained with cells prior to normalizing the data to % negative control (cells without added energy source).

Setting [5] is: Homo sapiens, HL-60, read-out: HL-60 Cell Responses to Selected Compounds from PM1 and PM2.

Regarding `CCSCCC(N)C(=O)O` (racemic) [DL-ethionine], the “suitability as sulfur source (growth, purple color)” value (from here on “suitability as sulfur source”) with E. coli MG1655 [1] is recorded as “not suitable”.

In the case of `CSCCC(NC(C)=O)C(=O)O` (racemic) [N-acetyl-DL-methionine], the “suitability as sulfur source” value in the test with E. coli MG1655 [1] was “positive”.

Take `CSCCC(NC(=O)CN)C(=O)O` (racemic) [glycyl-DL-methionine]: in the test with E. coli MG1655 [1], the “suitability as sulfur source” value is reported as “positive”.

In the case of `CCCCCCCCCCCCS(=O)(=O)O` [1-dodecane-sulfonic acid], the “suitability as sulfur source” value in the test with E. coli MG1655 [1] is on record as “not suitable”.

Turning to `NCCP(=O)(O)O` [2-aminoethyl phosphonate], the “suitability as phosphorus source (growth, purple color)” value (shortened to “suitability as phosphorus source”) in the test on E. coli MG1655 [1] is given as “weak positive”.

With `O=C(O)C(CO)OP(=O)(O)O` (stereo not shown) [2-phosphoglyceric acid], the “suitability as phosphorus source” value with E. coli MG1655 [1] was “positive”.

Consider `O=CC[C@@H](O)[C@H](O)[C@H](O)COP(=O)(O)O` [2′-deoxyglucose 6-phosphate], for which the “suitability as phosphorus source” value in the test on E. coli MG1655 [1] is “positive”.

Turning to `O=C(O)[C@H](O)[C@@H](O)[C@H](O)[C@H](O)COP(=O)(O)O` [6-phosphogluconic acid], the “suitability as phosphorus source” value in the test with E. coli MG1655 [1] is given as “positive”.

For the compound `N=C(N)NCCC[C@H](N)C(=O)O` [L-arginine], in test [2], the activity at 30 µM is 124%, the activity at 100 µM was determined as 118%, the activity at 330 µM is 114% and the activity at 1000 µM worked out at 109%. In addition, in test [2], the activity at 3300 µM is 115%, the activity at 10000 µM came to 132%, the activity at 15000 µM was 140% and the activity at 20000 µM stood at 126%. Moreover, the “suitability as nitrogen source (growth, purple color)” value in the test with E. coli MG1655 [3] is given as “positive”. Further, in the test on HepG2 cells, the activity at 30 µM was 127%, the activity at 100 µM was found to be 144%, the activity at 330 µM turned out to be 165% and the activity at 1000 µM is 142%. Also, in the test on HepG2 cells, the activity at 3300 µM came to 154%, the activity at 10000 µM was 119%, the activity at 15000 µM was 90.8% and the activity at 20000 µM is 60.3%. Further, in test [4], the activity at 30 µM was found to be 106%, the activity at 100 µM is 103%, the activity at 330 µM turned out to be 122% and the activity at 1000 µM is 126%. Also, in test [4], the activity at 3300 µM is 123%, the activity at 10000 µM was determined as 132%, the activity at 15000 µM came to 119% and the activity at 20000 µM stood at 93.4%. Moreover, the response in words entry with HL-60 cells is on record as “strongly utilized, even at very low concentrations”. In the test on HL-60 cells (setting [5]), the activity at 30 µM is 134%, the activity at 100 µM stood at 138%, the activity at 330 µM was found to be 131% and the activity at 1000 µM worked out at 138%. In the test with HL-60 cells (setting [5]), the activity at 3300 µM came out at 132%, the activity at 10000 µM stood at 128%, the activity at 15000 µM turned out to be 108% and the activity at 20000 µM was 109%.

As for `N[C@@H](CS(=O)(=O)O)C(=O)O` [L-cysteic acid], in the test on E. coli MG1655 [1], the “suitability as sulfur source” value is on record as “positive”.

For `N[C@@H](CS(=O)O)C(=O)O` [L-cysteine sulphinic acid], the “suitability as sulfur source” value with E. coli MG1655 [1] is listed as “positive”.

Turning to `N[C@@H](CSCSC[C@H](N)C(=O)O)C(=O)O` [L-djenkolic acid], in the test on E. coli MG1655 [1], the “suitability as sulfur source” value was “positive”.

Consider `CS(=O)(=O)CC[C@H](N)C(=O)O` [L-methionine sulfone], for which the “suitability as sulfur source” value in the test on E. coli MG1655 [1] is on record as “not suitable”.

As for `C[S+]([O-])CC[C@H](N)C(=O)O` (stereo partly drawn) [L-methionine sulfoxide], in the test on E. coli MG1655 [1], the “suitability as sulfur source” value is on record as “positive”.

For `CC(=O)N[C@@H](CS)C(=O)O` [N-acetyl cysteine], the “suitability as sulfur source” value with E. coli MG1655 [1] is on record as “not suitable”.

For `N[C@H](COP(=O)(O)O)C(=O)O` [O-phospho-D-serine], in the test with E. coli MG1655 [1], the “suitability as phosphorus source” value was “positive”.

`N[C@H](Cc1ccc(OP(=O)(O)O)cc1)C(=O)O` [O-phospho-D-tyrosine]: the “suitability as phosphorus source” value with E. coli MG1655 [1] is reported as “positive”.

On to `N[C@@H](COP(=O)(O)O)C(=O)O` [O-phospho-L-serine], for which the “suitability as phosphorus source” value in the test on E. coli MG1655 [1] is “positive”.

Turning to `C[C@@H](OP(=O)(O)O)[C@H](N)C(=O)O` [O-phospho-L-threonine], the “suitability as phosphorus source” value in the test with E. coli MG1655 [1] is listed as “positive”.

Regarding `N[C@@H](Cc1ccc(OP(=O)(O)O)cc1)C(=O)O` [O-phospho-L-tyrosine], the “suitability as phosphorus source” value in the test on E. coli MG1655 [1] is “positive”.

Turning to `CSC[C@H](N)C(=O)O` [S-methyl-L-cysteine], the “suitability as sulfur source” value in the test with E. coli MG1655 [1] is “weak positive”.

On to `Nc1ncnc2c1ncn2C1OC(CO)C2OP(=O)(O)OC21` (stereo not shown) [adenosine 2′:3′-cyclic monophosphate], for which the “suitability as phosphorus source” value in the test with E. coli MG1655 [1] is reported as “not suitable”.

Take `O=C[C@@H](O)[C@H](O)[C@H](O)COP(=O)(O)O` [arabinose 5-phosphate]: the “suitability as phosphorus source” value in the test with E. coli MG1655 [1] is “positive”.

Regarding `N[C@@H](CCSC[C@H](N)C(=O)O)C(=O)O` [cystathionine], the “suitability as sulfur source” value in the test on E. coli MG1655 [1] was “positive”.

As to `Nc1ccn([C@@H]2O[C@H](CO)C3OP(=O)(O)O[C@@H]32)c(=O)n1` (stereo partly shown) [cytidine 2′:3′-cyclic monophosphate], in the test on E. coli MG1655 [1], the “suitability as phosphorus source” value is recorded as “positive”.
